Laboratory results published in patent US10548313B2, “Acetyl-CoA carboxylase modulators” (Monsanto Technology LLC, priority 2013, dated 2020).
“And” between values parts separate entries of the source, which are not always exact repeats. Identical values can stand only once. Like-named read-outs stand apart in the source and are kept apart here.

Key:
Diplodia maydis = test: Fungal growth inhibition assay, Diplodia maydis; assay type: cell-based; conditions: 48 hours, read-out: D. maydis % growth inhibition at 48 hours
Method: Spores were isolated from previously sub-cultured plates of Botrytis cinerea, Phytophthora capsici, Fusarium moniliforme, Fusarium viguliforme, Collectotrichum graminicola, and Diplodia maydis. All spores were filtered and collected in a sterile glass bowl to isolate the spores from the mycelia. The isolation and sub-culture plate condition for each pathogen is described below.
Spore isolation for D. maydis: A 3-4 week old PDA (pre-mix) plate was removed from 26° C. incubator with a light/dark 12 hour cycle and the mycelia were treated with 6-7 ml of sterile distilled water, scraped into a sterile petri dish, and smashed to open the pycnidia. The spores were then collected in a sterile filter bowl containing a fluted piece of filter paper and poured into a conical tube.
After spore isolation, pathogen spores were counted on a hemocytometer to calculate the spores/ml. In 17% V8 liquid media containing 3 g/L CaCO3, isolated spores were diluted to individual concentrations based on the growth curves at 48 hours of each pathogen. The spore concentrations for each pathogen were as follows: B. cinerea—10,000 sp/ml; P. capsici—300 sp/ml; F. monliforme—500 sp/ml; F. virguliforme—500 sp/ml; C. graminicola—3,000 sp/ml; and D. maydis—3,000 sp/ml.
Chemistry stocks were dissolved in DMSO at 2.5 mg/ml. Chemistry was diluted in a 96-well stock plate in five-fold dilutions to obtain a final concentration of 50, 10, and 2 ppm in vitro. The final concentration of the positive control after the five-fold dilutions was as follows: soraphen—0.5, 0.1, and 0.02 ppm. Negative controls on each plate included 2% DMSO, water containing spores and media, and a blank for background subtraction.
In a 96-well plate the spore solution, chemistries, and controls were combined to make the final solution concentrations mentioned above. Upon addition of the chemistry, an OD600 reading was done to assess chemical precipitation. The 96-well plates were incubated in plastic tubs containing wet paper towels under the following conditions, 25° C. in the dark for P. capsici and B. cinerea or 26° C. with light/dark cycle for C. graminicola, D. maydis, F. virguliforme, F. monliforme. Plate readings were repeated at 24 and 48 hrs. Visual ratings were performed at 24 and 48 hrs to check for precipitation and confirm efficacy. Visual and OD600 ratings of the chemistry at 48 hours were compared to the 2% DMSO control to determine the percent of pathogen growth inhibition.

[1] = biological target: Ustilago maydis acetyl CoA carboxylase (ACCase) (Mycosarcoma maydis (Ustilago maydis), UniProt A0A0D1DYD5); test: ACCase enzymatic assay (coupled PK/LDH, NADH OD340); assay type: biochemical
Method: Ustilago maydis acetyl CoA carboxylase (ACCase) was cloned, expressed, and purified as described (Weatherly et al, Biochem. J., 2004) and the test compounds were tested in a 96-well plate format. Primary in vitro screening consisted of obtaining dose response data at 100, 33, 10, and 1 μM inhibitor. Actives in the primary screen were re-tested to establish IC50 values.
Direct detection of the conversion of acetyl CoA to malonyl CoA by ACCase was not feasible, but during this process ATP is converted to ADP which allowed for detection through a standard reaction coupling with ADP recycling to the oxidation of NADH. Thus, ACCase activity was measured via kinetic OD340 measurements of the conversion of NADH to NAD in a coupled reaction involving the conversion of phosphoenolpyruvate (PEP) to lactate.
The complete 200 ul reaction mixture contained 52.5 mM HEPES (pH8), 2.625 mM MgCl2, 1 mM ATP, 0.525 mM DTT, 11 mM NaHCO3, 1% DMSO with or without inhibitor, 1× pyruvate kinase/lactate dehydrogenase (PK/LDH), 0.3 mM NADH, 0.5 mM PEP, and 5 μg ACCase. The reactions were incubated at 30° C. for 10 minutes and then initiated by the addition of 0.33 mM acetyl CoA. The initiated reactions were read immediately via plate reader at OD340 and kinetic readings were acquired every 20 s for 15 minutes while keeping the temperature at 30° C.
A slope of the kinetic curve was determined by using the 2 to 7 minute data which was then calculated as percent inhibition relative to the no inhibitor control.
The primary screens were conducted in duplicate and the IC50's conducted in triplicate. Averages were reported along with standard deviation calculation to generate error bars.
Each plate contained its own controls and consisted of a DMSO only control, 5-fold titration series of soraphen from 2 μM to 3.2 nM, and an ADP coupled reaction control.

[2] = Table 1A, values marked a are a result of two or more experiments, read-out: ACCase Inhibitory Activity IC50
[3] = Table 1B, racemate vs single enantiomers, read-out: ACCase Inhibitory Activity of Racemic Mixtures and Single Enantiomers IC50

Sequence of Ustilago maydis acetyl CoA carboxylase (ACCase) (A0A0D1DYD5 1-2185): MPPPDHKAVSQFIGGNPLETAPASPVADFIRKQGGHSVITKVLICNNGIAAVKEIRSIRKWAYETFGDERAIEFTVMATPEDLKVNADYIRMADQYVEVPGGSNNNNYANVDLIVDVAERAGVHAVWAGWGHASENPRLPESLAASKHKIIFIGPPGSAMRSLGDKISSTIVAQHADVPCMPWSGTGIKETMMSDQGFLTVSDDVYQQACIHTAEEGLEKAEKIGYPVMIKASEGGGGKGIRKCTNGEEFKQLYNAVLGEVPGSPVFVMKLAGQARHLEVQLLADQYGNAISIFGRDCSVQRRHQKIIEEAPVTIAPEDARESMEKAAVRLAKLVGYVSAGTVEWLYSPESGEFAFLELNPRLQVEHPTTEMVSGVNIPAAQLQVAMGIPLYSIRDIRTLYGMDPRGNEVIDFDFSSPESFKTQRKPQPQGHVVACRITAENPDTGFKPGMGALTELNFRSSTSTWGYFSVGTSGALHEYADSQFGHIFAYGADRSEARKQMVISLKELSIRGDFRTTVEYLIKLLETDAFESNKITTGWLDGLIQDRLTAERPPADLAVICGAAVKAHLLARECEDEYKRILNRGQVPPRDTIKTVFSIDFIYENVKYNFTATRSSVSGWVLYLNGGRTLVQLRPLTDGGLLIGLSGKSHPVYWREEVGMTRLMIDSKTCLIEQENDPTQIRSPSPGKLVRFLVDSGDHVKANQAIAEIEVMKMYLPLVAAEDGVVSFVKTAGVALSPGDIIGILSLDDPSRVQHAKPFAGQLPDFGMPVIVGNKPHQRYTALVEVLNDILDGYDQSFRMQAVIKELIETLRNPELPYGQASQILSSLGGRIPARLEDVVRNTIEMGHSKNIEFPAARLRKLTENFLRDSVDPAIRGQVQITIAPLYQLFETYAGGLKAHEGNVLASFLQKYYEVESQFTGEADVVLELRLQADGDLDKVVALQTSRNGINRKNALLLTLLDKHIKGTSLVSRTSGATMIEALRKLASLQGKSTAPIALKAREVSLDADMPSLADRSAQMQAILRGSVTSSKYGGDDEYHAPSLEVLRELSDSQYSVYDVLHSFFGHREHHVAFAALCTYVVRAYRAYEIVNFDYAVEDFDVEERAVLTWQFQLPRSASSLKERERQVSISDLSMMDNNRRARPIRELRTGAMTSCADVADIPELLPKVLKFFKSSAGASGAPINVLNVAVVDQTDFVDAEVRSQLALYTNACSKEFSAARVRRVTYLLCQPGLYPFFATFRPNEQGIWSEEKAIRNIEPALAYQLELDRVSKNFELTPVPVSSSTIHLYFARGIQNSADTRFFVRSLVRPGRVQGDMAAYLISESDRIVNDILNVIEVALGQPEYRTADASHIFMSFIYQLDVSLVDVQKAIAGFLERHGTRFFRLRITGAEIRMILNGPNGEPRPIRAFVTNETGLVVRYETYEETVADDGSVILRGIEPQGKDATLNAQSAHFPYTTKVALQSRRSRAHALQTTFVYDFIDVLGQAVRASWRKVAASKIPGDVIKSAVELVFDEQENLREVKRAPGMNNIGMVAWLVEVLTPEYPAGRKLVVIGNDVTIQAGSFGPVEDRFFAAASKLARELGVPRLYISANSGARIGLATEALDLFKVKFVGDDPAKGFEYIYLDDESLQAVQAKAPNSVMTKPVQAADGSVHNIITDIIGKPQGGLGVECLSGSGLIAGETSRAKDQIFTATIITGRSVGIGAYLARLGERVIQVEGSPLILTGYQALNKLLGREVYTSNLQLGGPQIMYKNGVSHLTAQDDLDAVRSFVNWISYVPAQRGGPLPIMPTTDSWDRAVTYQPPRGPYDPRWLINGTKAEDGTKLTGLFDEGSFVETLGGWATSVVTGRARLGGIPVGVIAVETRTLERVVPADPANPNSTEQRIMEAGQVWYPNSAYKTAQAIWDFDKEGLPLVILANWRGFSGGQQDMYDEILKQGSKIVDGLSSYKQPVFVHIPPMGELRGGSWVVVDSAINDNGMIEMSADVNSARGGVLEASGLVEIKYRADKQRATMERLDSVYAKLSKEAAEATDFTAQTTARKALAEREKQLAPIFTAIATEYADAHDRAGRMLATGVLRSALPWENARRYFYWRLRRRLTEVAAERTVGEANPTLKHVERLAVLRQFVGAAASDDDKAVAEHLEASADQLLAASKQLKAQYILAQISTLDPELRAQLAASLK

Q: What does the source list for `N#Cc1c(C(F)(F)F)cc(-c2ccco2)nc1SC(C(=O)O)c1ccccc1` (centres unmarked) [Formula Ia-xi, 2-((3-cyano-6-(furan-2-yl)-4-(trifluoromethyl)pyridin-2-yl)thio)-2-phenylacetic acid]?
A: inhibition at 2 ppm (Diplodia maydis; 2 ppm): 38%; inhibition at 10 ppm (Diplodia maydis; 10 ppm): 54%; inhibition at 50 ppm (Diplodia maydis; 50 ppm): 82%; IC50 [1, 2]: 5430 nM

Q: With `Cc1ccc(-c2cc(-c3cccs3)nc(SC(C(=O)O)c3ccccc3)c2C#N)cc1` (centres unmarked) [Formula Ia-xxi, 2-((3-cyano-6-(thiophen-2-yl)-4-(p-tolyl)pyridin-2-yl)thio)-2-phenylacetic acid] as the compound, how does the IC50 [1, 2] read?
A: 353 nM

Q: `COc1ccc(-c2cc(-c3cccs3)nc(SC(C(=O)O)c3ccccc3)c2C#N)cc1` (single isomer, unassigned) [Formula Ia-xiv-e2, 2-((3-cyano-4-(4-methoxyphenyl)-6-(thiophen-2-yl)pyridin-2-yl)thio)-2-phenylacetic acid] was tested. Which IC50 [1, 3] did it give?
A: 440 nM and 523 nM

Q: How did the IC50 [1, 2] turn out when `COc1ccc(-c2cc(-c3ccco3)nc(SC(C(=O)O)c3ccccc3)c2C#N)cc1` (centres unmarked) [Formula Ia-xx, 2-((3-cyano-6-(furan-2-yl)-4-(4-methoxyphenyl)pyridin-2-yl)thio)-2-phenylacetic acid] was run?
A: 345 nM

Q: How did the IC50 [1, 2] turn out when `N#Cc1c(SC(C(=O)O)c2ccccc2)nc2c(c1-c1ccccc1)CCCC2` (centres unmarked) [Formula Ia-xvii, 2-((3-cyano-4-phenyl-5,6,7,8-tetrahydroquinolin-2-yl)thio)-2-phenylacetic acid] was run?
A: 906 nM

Q: `N#Cc1c(SC(CO)c2ccccc2)nc2c(c1-c1cccs1)CCCC2` (centres unmarked) [Formula IIb-ii, 2-((2-hydroxy-1-phenylethyl)thio)-4-(thiophen-2-yl)-5,6,7,8-tetrahydroquinoline-3-carbonitrile] was tested. Which IC50 [1, 2] did it give?
A: 4090 nM

Q: For `N#Cc1c(SC(C(N)=O)c2ccccc2)nc2c(c1-c1cccs1)CCCC2` (centres unmarked) [Formula Ib-i, 2-((3-cyano-4-(thiophen-2-yl)-5,6,7,8-tetrahydroquinolin-2-yl)thio)-2-phenylacetamide], which IC50 [1, 2] is on record?
A: 712 nM

Q: With `N#Cc1c(-c2cccs2)cc(-c2cccs2)nc1SC(C(=O)O)c1ccccc1` (single isomer, unassigned) [Formula Ia-iii-e1, 2-((3-cyano-4,6-di(thiophen-2-yl)pyridin-2-yl)thio)-2-phenylacetic acid] as the compound, how does the IC50 [1, 3] read?
A: 547 nM

Q: With `COc1ccc(-c2cc(-c3cccs3)nc(SC(CO)c3ccccc3)c2C#N)cc1` (centres unmarked) [Formula IIb-i, 2-((2-hydroxy-1-phenylethyl)thio)-4-(4-methoxyphenyl)-6-(thiophen-2-yl)nicotinonitrile] as the compound, how does the IC50 [1, 2] read?
A: 625 nM

Q: How did the IC50 [1, 3] turn out when `COc1ccc(-c2cc(-c3cccs3)nc(SC(C(=O)O)c3ccccc3)c2C#N)cc1` (single isomer, unassigned) [Formula Ia-xiv-e1, 2-((3-cyano-4-(4-methoxyphenyl)-6-(thiophen-2-yl)pyridin-2-yl)thio)-2-phenylacetic acid] was run?
A: 115 nM and 129 nM

Q: Which IC50 [1, 2] does the source give for “2-((3-cyano-4-(thiophen-2-yl)-5,6,7,8-tetrahydroquinolin-2-yl)oxy)-2-phenylacetic acid [Formula Ia-xxvii]” here?
A: 249 nM

Q: For `COc1ccc(-c2c(C#N)c(SC(C(=O)O)c3ccccc3)nc3c2CCCC3)cc1` (centres unmarked) [Formula Ia-xxvi, 2-((3-cyano-4-(4-methoxyphenyl)-5,6,7,8-tetrahydroquinolin-2-yl)thio)-2-phenylacetic acid], which IC50 [1, 2] is on record?
A: 560 nM

Q: How did the IC50 [1, 2] turn out when `Cc1cc(C(F)(F)F)c(C#N)c(SC(C(=O)O)c2ccccc2)n1` (centres unmarked) [Formula Ia-xvi, 2-((3-cyano-6-methyl-4-(trifluoromethyl)pyridin-2-yl)thio)-2-phenylacetic acid] was run?
A: 7730 nM

Q: With `CO[C@H]1CCCC[C@@H](c2ccccc2)OC(=O)[C@@H](C)[C@@]2(O)O[C@H]([C@@H](C)[C@H](O)[C@H]2OC)[C@@H](C)/C=C/[C@H]1OC` [Soraphen, reference compound] as the compound, how does the IC50 [1, 2] read?
A: 45.8 nM

Q: For `CCC(Sc1nc(-c2cccs2)cc(-c2ccc(OC)cc2)c1C#N)C(=O)O` (centres unmarked) [Formula Ia-xxix, 2-((3-cyano-4-(4-methoxyphenyl)-6-(thiophen-2-yl)pyridin-2-yl)thio)butanoic acid], which IC50 [1, 2] is on record?
A: 113 nM

Q: For `N#Cc1c(-c2cccs2)cc(-c2cccs2)nc1SC(C(=O)O)c1ccccc1` (single isomer, unassigned) [Formula Ia-iii-e2, 2-((3-cyano-4,6-di(thiophen-2-yl)pyridin-2-yl)thio)-2-phenylacetic acid], which IC50 [1, 3] is on record?
A: 2390 nM

Q: Which IC50 [1, 2] does the source give for `N#Cc1c(-c2ccc(Br)cc2)cc(-c2cccs2)nc1SC(C(=O)O)c1ccccc1` (centres unmarked) [Formula Ia-xxiii, 2-((4-(4-bromophenyl)-3-cyano-6-(thiophen-2-yl)pyridin-2-yl)thio)-2-phenylacetic acid] here?
A: 212 nM

Q: How did the IC50 [1, 2] turn out when `COc1ccc(-c2cc(-c3cccs3)nc(SC(C(=O)NO)c3ccccc3)c2C#N)cc1` (centres unmarked) [Formula Ib-iii, 2-((3-cyano-4-(4-methoxyphenyl)-6-(thiophen-2-yl)pyridin-2-yl)thio)-N-hydroxy-2-phenylacetamide] was run?
A: 882 nM

Q: `N#Cc1c(-c2cccs2)cc(-c2ccco2)nc1SC(C(=O)O)c1ccccc1` (centres unmarked) [Formula Ia-xxiv, 2-((3-cyano-6-(furan-2-yl)-4-(thiophen-2-yl)pyridin-2-yl)thio)-2-phenylacetic acid] was tested. Which IC50 [1, 2] did it give?
A: 958 nM

Q: With `N#Cc1c(-c2ccco2)cc(-c2cccs2)nc1SC(CO)c1ccccc1` (centres unmarked) [Formula IIb-iv, 4-(furan-2-yl)-2-((2-hydroxy-1-phenylethyl)thio)-6-(thiophen-2-yl)nicotinonitrile] as the compound, how does the IC50 [1, 2] read?
A: 2180 nM

Q: For `N#Cc1c(-c2ccc(F)cc2)cc(-c2cccs2)nc1SC(C(=O)O)c1ccccc1` (centres unmarked) [Formula Ia-xxii, 2-((3-cyano-4-(4-fluorophenyl)-6-(thiophen-2-yl)pyridin-2-yl)thio)-2-phenylacetic acid], which IC50 [1, 2] is on record?
A: 563 nM

Q: Which IC50 [1, 2] does the source give for `COc1ccc(-c2cc(SC(C(=O)O)c3ccccc3)nc(-c3cccs3)c2)cc1` (centres unmarked) [Formula Ia-xix, 2-((4-(4-methoxyphenyl)-6-(thiophen-2-yl)pyridin-2-yl)thio)-2-phenylacetic acid] here?
A: 9060 nM

Q: Which IC50 [1, 2] does the source give for `N#Cc1c(-c2ccco2)cc(-c2ccco2)nc1SC(C(=O)O)c1ccccc1` (centres unmarked) [Formula Ia-xxv, 2-((3-cyano-4,6-di(furan-2-yl)pyridin-2-yl)thio)-2-phenylacetic acid] here?
A: 4040 nM

Q: How did the IC50 [1, 2] turn out when `CN1CCCc2c1nc(SC(C(=O)O)c1ccccc1)c(C#N)c2-c1cccs1` (centres unmarked) [Formula Ia-vi, 2-((3-cyano-8-methyl-4-(thiophen-2-yl)-5,6,7,8-tetrahydro-1,8-naphthyridin-2-yl)thio)-2-phenylacetic acid] was run?
A: 3550 nM

Q: With `COc1ccc(-c2cc(-c3cccs3)nc(SC(C(N)=O)c3ccccc3)c2C#N)cc1` (centres unmarked) [Formula Ib-ii, 2-((3-cyano-4-(4-methoxyphenyl)-6-(thiophen-2-yl)pyridin-2-yl)thio)-2-phenylacetamide] as the compound, how does the IC50 [1, 2] read?
A: > 33000 nM

Q: How did the IC50 [1, 3] turn out when `N#Cc1c(C(F)(F)F)cc(-c2cccs2)nc1SC(C(=O)O)c1ccccc1` (single isomer, unassigned) [Formula Ia-ii-e1, 2-((3-cyano-6-(thiophen-2-yl)-4-(trifluoromethyl)-pyridin-2-yl)thio)-2-phenylacetic acid] was run?
A: 12900 nM
